In the supplement of paper PMC10307832:

Columns and labels:
Test in all cases: relative viability (nuclei count vs DMSO), 5 days (fraction); higher = more cells survive
[1] = compound: O=C(NCCCNc1nc(Nc2cccc(NC(=O)N3CCCC3)c2)ncc1I)c1cccs1 [BX 795] + Nc1nc2[nH]cc(CCc3ccc(C(=O)N[C@@H](CCC(=O)O)C(=O)O)cc3)c2c(=O)[nH]1 [Pemetrexed] (partner 0.2 µM)
In short: (§1)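 Lung cancer cell lines, seeded in 1536-well plates, were treated the following day by pin tool with a single drug or with five library-drug doses (not always all listed) in √10 steps on top of a fixed anchor-drug dose. Cells were fixed and nuclei stained in one step after 5 days, and nuclei were counted. Relative viability is the nuclei count for treated wells divided by that for vehicle wells, reported as medians of duplicate plates.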

[2] = compound: O=C(NCCCNc1nc(Nc2cccc(NC(=O)N3CCCC3)c2)ncc1I)c1cccs1 [BX 795] + CS(=O)(=O)N1CCN(Cc2cc3nc(-c4cccc5[nH]ncc45)nc(N4CCOCC4)c3s2)CC1 [Pictilisib] (partner 1 µM)
In short: as §1

[3] = compound: O=C(NCCCNc1nc(Nc2cccc(NC(=O)N3CCCC3)c2)ncc1I)c1cccs1 [BX 795] + CC(C)C[C@H](NC(=O)[C@H](Cc1ccccc1)NC(=O)c1cnccn1)B(O)O [Bortezomib] (partner 0.002 µM)
In short: as §1

[4] = compound: O=C(NCCCNc1nc(Nc2cccc(NC(=O)N3CCCC3)c2)ncc1I)c1cccs1 [BX 795] + O=C(c1cc(Cc2n[nH]c(=O)c3ccccc23)ccc1F)N1CCN(C(=O)C2CC2)CC1 [Olaparib] (partner 8 µM)
In short: as §1

[5] = compound: O=C(NCCCNc1nc(Nc2cccc(NC(=O)N3CCCC3)c2)ncc1I)c1cccs1 [BX 795] + CC(=O)c1c(C)c2cnc(Nc3ccc(N4CCNCC4)cn3)nc2n(C2CCCC2)c1=O [Palbociclib] (partner 0.5 µM)
In short: as §1

| Cell Line | relative viability ([1]; first compound 0.04 µM) | relative viability ([1]; first compound 0.1265 µM) | relative viability ([1]; first compound 0.4 µM) | relative viability ([1]; first compound 1.265 µM) | relative viability ([2]; first compound 0.04 µM) | relative viability ([2]; first compound 0.1265 µM) | relative viability ([2]; first compound 0.4 µM) | relative viability ([2]; first compound 1.265 µM) | relative viability ([3]; first compound 0.04 µM) | relative viability ([3]; first compound 0.1265 µM) | relative viability ([3]; first compound 0.4 µM) | relative viability ([3]; first compound 1.265 µM) | relative viability ([4]; first compound 0.04 µM) | relative viability ([4]; first compound 0.1265 µM) | relative viability ([4]; first compound 0.4 µM) | relative viability ([4]; first compound 1.265 µM) | relative viability ([5]; first compound 0.04 µM) | relative viability ([5]; first compound 0.1265 µM) | relative viability ([5]; first compound 0.4 µM) | relative viability ([5]; first compound 1.265 µM) |
| --- | --- | --- | --- | --- | --- | --- | --- | --- | --- | --- | --- | --- | --- | --- | --- | --- | --- | --- | --- | --- |
| 201T | 0.302 | 0.305 | 0.298 | 0.304 | 0.689 | 0.679 | 0.721 | 0.68 | 1.12 | 1.08 | 1.18 | 1.11 | 0.657 | 0.851 | 0.899 | 0.856 | 0.333 | 0.34 | 0.376 | 0.405 |
| A549 |  |  |  |  | 0.51 | 0.47 | 0.449 | 0.134 |  |  |  |  | 0.495 | 0.379 | 0.279 | 0.219 |  |  |  |  |
| A-427 | 1.02 | 0.925 | 1.08 | 0.849 | 0.723 | 0.805 | 0.651 | 0.585 | 0.972 | 0.964 | 1.02 | 0.866 | 0.826 | 0.68 | 0.672 | 0.641 | 0.562 | 0.482 | 0.508 | 0.502 |
| ABC-1 |  |  |  |  | 0.507 | 0.555 | 0.634 | 0.661 | 0.392 | 0.299 | 0.332 | 0.291 | 1.07 |  | 0.962 | 0.526 | 0.768 |  | 0.765 | 0.727 |
| BEN | 0.803 | 0.766 | 0.771 | 0.771 | 0.542 | 0.587 | 0.533 | 0.715 | 0.805 | 0.783 | 0.842 | 0.873 | 1.19 | 1.34 | 0.797 | 1.04 | 0.454 | 0.436 | 0.49 | 0.491 |
| CAL-12T | 1.1 | 1.28 | 0.809 | 0.494 | 0.543 | 0.452 | 0.368 | 0.32 | 0.954 | 0.929 | 1.04 | 0.623 | 0.877 | 0.769 | 0.725 | 0.41 | 0.473 | 0.55 | 0.298 | 0.218 |
| COR-L23 | 0.204 | 0.188 | 0.176 | 0.171 | 0.909 | 0.899 | 0.75 | 0.538 | 1.1 | 1.02 | 0.916 | 0.979 | 0.328 | 0.311 | 0.247 | 0.166 | 0.359 | 0.287 | 0.253 | 0.191 |
| COR-L 105 | 1.12 | 1.02 | 0.816 | 0.882 | 0.376 | 0.381 | 0.359 | 0.328 | 0.586 | 0.577 | 0.613 | 0.327 | 0.705 | 0.491 | 0.644 | 0.562 | 0.453 | 0.338 | 0.401 | 0.314 |
| ChaGo-K-1 | 0.243 | 0.258 | 0.254 | 0.258 | 0.615 | 0.52 | 0.735 | 0.776 | 1.02 | 0.916 | 0.977 | 0.91 | 0.424 | 0.447 | 0.415 | 0.311 | 0.889 | 0.929 | 0.928 | 0.705 |
| EKVX | 0.309 | 0.379 | 0.228 | 0.386 | 0.401 | 0.455 | 0.421 | 0.466 | 1.15 | 1.09 | 0.99 | 0.886 | 0.833 | 0.783 | 0.666 | 0.807 | 0.51 | 0.483 | 0.381 | 0.365 |
| EMC-BAC-2 | 0.383 | 0.446 | 0.428 | 0.454 | 0.533 | 0.488 | 0.479 | 0.415 | 1.08 | 1.08 | 1.13 | 1.06 | 0.563 | 0.369 | 0.494 | 0.323 | 0.536 | 0.52 | 0.512 | 0.432 |
| EPLC-272H | 0.272 | 0.294 | 0.123 | 0.21 | 0.364 |  | 0.308 | 0.304 | 1.02 |  | 0.857 | 0.824 | 0.932 | 0.681 | 0.352 | 0.325 | 0.352 | 0.419 | 0.317 | 0.387 |
| H3255 | 0.615 | 0.531 | 0.584 | 0.509 | 0.533 | 0.475 | 0.498 | 0.428 | 0.731 | 0.816 | 1.11 | 0.66 | 0.624 | 0.608 | 0.501 | 0.492 | 0.323 | 0.276 | 0.314 | 0.316 |
| HARA | 0.21 | 0.227 | 0.195 | 0.227 | 0.403 | 0.412 | 0.496 | 0.474 | 1.12 | 1.03 | 1.1 | 1.06 | 0.436 | 0.328 | 0.549 | 0.766 | 0.237 | 0.183 | 0.201 | 0.208 |
| HCC-15 | 0.199 | 0.202 | 0.215 | 0.194 | 0.71 | 0.779 | 0.968 | 0.744 | 0.969 | 1.02 | 0.99 | 0.778 | 0.857 | 0.73 | 1.04 | 0.499 | 0.766 | 0.712 | 0.663 | 0.616 |
| HCC-44 | 0.537 | 0.614 | 0.449 | 0.666 | 0.55 | 0.672 | 0.681 | 0.594 | 0.818 | 0.929 | 1.1 | 0.772 | 0.995 | 1.01 | 1.06 | 1 | 0.997 | 0.968 | 1.05 | 1.07 |
| HCC-78 | 0.913 | 0.888 | 0.873 | 0.883 | 0.236 | 0.206 | 0.154 | 0.218 | 0.735 | 0.487 | 0.438 | 0.41 | 1.1 | 0.811 | 0.882 | 0.605 | 0.56 | 0.437 | 0.49 | 0.433 |
